Square brackets hold non-standard residues; d marks the D form. Peptide text beside a SMILES is read from it. dGly(5-dibenzosuberyl) = N[C@@H](C(=O)O)C1c2ccccc2CCc2ccccc21

For one assay, the target named is T1, Endothelin-1 receptor (Sus scrofa, UniProt Q29010).
T1 sequence (Q29010 whole entry): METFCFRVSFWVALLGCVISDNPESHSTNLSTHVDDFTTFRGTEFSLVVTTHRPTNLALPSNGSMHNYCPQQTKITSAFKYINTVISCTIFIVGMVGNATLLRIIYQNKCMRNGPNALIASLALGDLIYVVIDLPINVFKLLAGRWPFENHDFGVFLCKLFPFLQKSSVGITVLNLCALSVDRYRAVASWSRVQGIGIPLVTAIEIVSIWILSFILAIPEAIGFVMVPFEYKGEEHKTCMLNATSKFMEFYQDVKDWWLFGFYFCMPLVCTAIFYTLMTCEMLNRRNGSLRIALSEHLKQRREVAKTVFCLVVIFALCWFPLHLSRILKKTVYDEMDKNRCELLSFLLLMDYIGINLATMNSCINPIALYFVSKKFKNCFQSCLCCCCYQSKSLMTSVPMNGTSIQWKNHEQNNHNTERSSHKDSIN
Put plainly: Antagonist activity against ET-A from porcine heart membranes. It is filed as functional, tissue-based.
Settings: not given
The molecule `CC[C@H](C)[C@H](NC(=O)[C@@H](NC(=O)[C@H](CC(=O)O)NC(=O)[C@H](CC(C)C)NC(=O)[C@H](NC(C)=O)C1c2ccccc2CCc2ccccc21)C(C)(C)C)C(=O)N[C@@H](Cc1c[nH]c2ccccc12)C(=O)O` registered an IC50 of 5 nM.
For `CC[C@H](C)[C@H](NC(=O)[C@H](CC(=O)O)NC(=O)[C@H](C)NC(=O)[C@H](NC(C)=O)C1c2ccccc2CCc2ccccc21)C(=O)N[C@H](C(=O)N[C@@H](Cc1c[nH]c2ccccc12)C(=O)O)[C@@H](C)CC`, the IC50 is 6 nM.
Consider `CC[C@H](C)[C@H](NC(=O)[C@H](CC(=O)O)NC(=O)[C@H](Cc1c[nH]c2ccccc12)NC(=O)[C@H](NC(C)=O)C1c2ccccc2CCc2ccccc21)C(=O)N[C@H](C(=O)N[C@@H](Cc1c[nH]c2ccccc12)C(=O)O)[C@@H](C)CC`, for which 11 nM corresponded to half-maximal inhibition (IC50).
On the same count and under the same terms, in the case of `CC[C@H](C)[C@H](NC(=O)[C@H](CC(=O)O)NC(=O)[C@H](CC(=O)O)NC(=O)[C@H](NC(C)=O)C1c2ccccc2CCc2ccccc21)C(=O)N[C@H](C(=O)N[C@@H](Cc1c[nH]c2ccccc12)C(=O)O)[C@@H](C)CC` it was 11 nM; in that of `CC[C@H](C)[C@H](NC(=O)[C@H](CC(=O)O)NC(=O)[C@H](Cc1ccccc1)NC(=O)[C@H](NC(C)=O)C1c2ccccc2CCc2ccccc21)C(=O)N[C@H](C(=O)N[C@@H](Cc1c[nH]c2ccccc12)C(=O)O)[C@@H](C)CC`, 24 nM.
On the same count and under the same terms, the value for `CC[C@H](C)[C@H](NC(=O)[C@H](CC(=O)O)NC(=O)[C@H](CCCN=C(N)N)NC(=O)[C@H](NC(C)=O)C1c2ccccc2CCc2ccccc21)C(=O)N[C@H](C(=O)N[C@@H](Cc1c[nH]c2ccccc12)C(=O)O)[C@@H](C)CC` (Ac-[dGly(5-dibenzosuberyl)]RDIIW-OH) was 3 nM; that for `CC[C@H](C)[C@H](NC(=O)[C@@H](NC(=O)[C@H](CC(=O)O)NC(=O)[C@H](CCC(N)=O)NC(=O)[C@H](NC(C)=O)C1c2ccccc2CCc2ccccc21)C(C)C)C(=O)N[C@@H](Cc1c[nH]c2ccccc12)C(=O)O` was 1.7 nM.
As to `CC[C@H](C)[C@H](NC(=O)[C@H](CC(=O)O)NC(=O)[C@H](CO)NC(=O)[C@H](NC(C)=O)C1c2ccccc2CCc2ccccc21)C(=O)N[C@H](C(=O)N[C@@H](Cc1c[nH]c2ccccc12)C(=O)O)[C@@H](C)CC`, the midpoint of inhibition, the IC50, lay at 6 nM.
Still for that read-out and setting: in the case of `CC[C@H](C)[C@H](NC(=O)[C@H](CC(=O)O)NC(=O)[C@@H]1CCCN1C(=O)[C@H](NC(C)=O)C1c2ccccc2CCc2ccccc21)C(=O)N[C@H](C(=O)N[C@@H](Cc1c[nH]c2ccccc12)C(=O)O)[C@@H](C)CC` it was 6 nM; in that of `CC[C@H](C)[C@H](NC(=O)[C@@H](NC(=O)[C@H](CC(=O)O)NC(=O)[C@H](CCC(N)=O)NC(=O)[C@H](NC(C)=O)C1c2ccccc2CCc2ccccc21)C(C)(C)C)C(=O)N[C@@H](Cc1c[nH]c2ccccc12)C(=O)O`, 5 nM; in that of `CC[C@H](C)[C@H](NC(=O)[C@H](CC(=O)O)NC(=O)[C@@H](NC(=O)[C@H](NC(C)=O)C1c2ccccc2CCc2ccccc21)[C@@H](C)CC)C(=O)N[C@H](C(=O)N[C@@H](Cc1c[nH]c2ccccc12)C(=O)O)[C@@H](C)CC`, 21 nM.
The same measure, in the same setting: the value for `CC[C@H](C)[C@H](NC(=O)[C@@H](NC(=O)[C@H](CC(=O)O)NC(=O)[C@H](CC(N)=O)NC(=O)[C@H](NC(C)=O)C1c2ccccc2CCc2ccccc21)C(C)C)C(=O)N[C@@H](Cc1c[nH]c2ccccc12)C(=O)O` was 4 nM; that for `CC[C@H](C)[C@H](NC(=O)[C@H](CC(=O)O)NC(=O)[C@@H](NC(=O)[C@H](NC(C)=O)C1c2ccccc2CCc2ccccc21)C(C)C)C(=O)N[C@H](C(=O)N[C@@H](Cc1c[nH]c2ccccc12)C(=O)O)[C@@H](C)CC` was 12 nM.
On the same count and under the same terms, the value for `CC[C@H](C)[C@H](NC(=O)[C@H](CC(=O)O)NC(=O)[C@H](CC(N)=O)NC(=O)[C@H](NC(C)=O)C1c2ccccc2CCc2ccccc21)C(=O)N[C@H](C(=O)N[C@@H](Cc1c[nH]c2ccccc12)C(=O)O)[C@@H](C)CC` was 3 nM.
In turn, `CC[C@H](C)[C@H](NC(=O)[C@H](CC(=O)O)NC(=O)[C@@H](NC(=O)[C@H](NC(C)=O)C1c2ccccc2CCc2ccccc21)[C@@H](C)O)C(=O)N[C@H](C(=O)N[C@@H](Cc1c[nH]c2ccccc12)C(=O)O)[C@@H](C)CC` gave an IC50 of 4 nM.
In the case of `CC[C@H](C)[C@H](NC(=O)[C@H](CC(=O)O)NC(=O)[C@H](CCC(N)=O)NC(=O)[C@H](NC(C)=O)C1c2ccccc2CCc2ccccc21)C(=O)N[C@H](C(=O)N[C@@H](Cc1c[nH]c2ccccc12)C(=O)O)[C@@H](C)CC`, the IC50 was determined as 2 nM.
As to `CC[C@H](C)[C@H](NC(=O)[C@H](CC(=O)O)NC(=O)[C@H](Cc1ccc(O)cc1)NC(=O)[C@H](NC(C)=O)C1c2ccccc2CCc2ccccc21)C(=O)N[C@H](C(=O)N[C@@H](Cc1c[nH]c2ccccc12)C(=O)O)[C@@H](C)CC`, the IC50 is 11 nM.
The same measure, in the same setting: the value for `CC[C@H](C)[C@H](NC(=O)[C@H](CC(=O)O)NC(=O)[C@H](CCCCN)NC(=O)[C@H](NC(C)=O)C1c2ccccc2CCc2ccccc21)C(=O)N[C@H](C(=O)N[C@@H](Cc1c[nH]c2ccccc12)C(=O)O)[C@@H](C)CC` was 4 nM.
Take `CC[C@H](C)[C@H](NC(=O)[C@H](CC(=O)O)NC(=O)[C@H](Cc1c[nH]cn1)NC(=O)[C@H](NC(C)=O)C1c2ccccc2CCc2ccccc21)C(=O)N[C@H](C(=O)N[C@@H](Cc1c[nH]c2ccccc12)C(=O)O)[C@@H](C)CC`: the midpoint of inhibition, the IC50, lay at 50 nM.
In the case of `CC[C@H](C)[C@H](NC(=O)[C@H](CC(=O)O)NC(=O)[C@H](CCC(=O)O)NC(=O)[C@H](NC(C)=O)C1c2ccccc2CCc2ccccc21)C(=O)N[C@H](C(=O)N[C@@H](Cc1c[nH]c2ccccc12)C(=O)O)[C@@H](C)CC` (Ac-[dGly(5-dibenzosuberyl)]EDIIW-OH), the IC50 worked out at 11 nM.
The same measure, in the same setting: in the case of `CC[C@H](C)[C@H](NC(=O)[C@H](CC(=O)O)NC(=O)CNC(=O)[C@H](NC(C)=O)C1c2ccccc2CCc2ccccc21)C(=O)N[C@H](C(=O)N[C@@H](Cc1c[nH]c2ccccc12)C(=O)O)[C@@H](C)CC` it was 19 nM.
On the same count and under the same terms, in the case of `CC[C@H](C)[C@H](NC(=O)[C@H](CC(=O)O)NC(=O)[C@H](CCSC)NC(=O)[C@H](NC(C)=O)C1c2ccccc2CCc2ccccc21)C(=O)N[C@H](C(=O)N[C@@H](Cc1c[nH]c2ccccc12)C(=O)O)[C@@H](C)CC` it was 8 nM.

The next assay addresses T2, Endothelin-1 receptor (Sus scrofa) (UniProt Q29010).
T2 sequence (whole entry): T1 sequence (Q29010 whole entry)
Put plainly: Inhibition of endothelin (ET-A) binding to porcine heart membranes. Also on record: concentration or dose not given beside the values. The settings on record: Membrane, concentration not given here.
The molecule `CC[C@H](C)[C@H](NC(=O)[C@H](Cc1ccc(O)cc1)NC(=O)[C@H](CC(=O)O)NC(=O)[C@H](CC(C)C)NC(=O)[C@H](NC(C)=O)C1c2ccccc2CCc2ccccc21)C(=O)N[C@@H](Cc1c[nH]c2ccccc12)C(=O)O` came in with an inhibition of 9%.
For the molecule `CC[C@H](C)[C@H](NC(=O)[C@@H]1CCCN1C(=O)[C@H](CC(=O)O)NC(=O)[C@H](CC(C)C)NC(=O)[C@H](NC(C)=O)C1c2ccccc2CCc2ccccc21)C(=O)N[C@@H](Cc1c[nH]c2ccccc12)C(=O)O`, the inhibition was found to be 0%.
The same measure, in the same setting: in the case of `CC[C@H](C)[C@H](NC(=O)[C@H](CCC(N)=O)NC(=O)[C@H](CC(=O)O)NC(=O)[C@H](CC(C)C)NC(=O)[C@H](NC(C)=O)C1c2ccccc2CCc2ccccc21)C(=O)N[C@@H](Cc1c[nH]c2ccccc12)C(=O)O` it was 12%; in that of `CC[C@H](C)[C@H](NC(=O)[C@H](CC(=O)O)NC(=O)[C@H](CC(C)C)NC(=O)[C@H](NC(C)=O)C1c2ccccc2CCc2ccccc21)C(=O)N[C@H](C(=O)N[C@@H](Cc1c[nH]c2ccccc12)C(=O)O)[C@@H](C)CC` (Ac-[dGly(5-dibenzosuberyl)]LDIIW-OH), 62%; in that of `CC[C@H](C)[C@H](NC(=O)[C@H](CCCN=C(N)N)NC(=O)[C@H](CC(=O)O)NC(=O)[C@H](CC(C)C)NC(=O)[C@H](NC(C)=O)C1c2ccccc2CCc2ccccc21)C(=O)N[C@@H](Cc1c[nH]c2ccccc12)C(=O)O`, 0%.
The same measure, in the same setting: the value for `CC[C@H](C)[C@H](NC(=O)[C@H](Cc1ccccc1)NC(=O)[C@H](CC(=O)O)NC(=O)[C@H](CC(C)C)NC(=O)[C@H](NC(C)=O)C1c2ccccc2CCc2ccccc21)C(=O)N[C@@H](Cc1c[nH]c2ccccc12)C(=O)O` (Ac-[dGly(5-dibenzosuberyl)]LDFIW-OH) was 12%; that for `CC[C@H](C)[C@H](NC(=O)[C@H](Cc1c[nH]c2ccccc12)NC(=O)[C@H](CC(=O)O)NC(=O)[C@H](CC(C)C)NC(=O)[C@H](NC(C)=O)C1c2ccccc2CCc2ccccc21)C(=O)N[C@@H](Cc1c[nH]c2ccccc12)C(=O)O` was 0%.
Molecule `CC[C@H](C)[C@H](NC(=O)[C@H](CCC(=O)O)NC(=O)[C@H](CC(=O)O)NC(=O)[C@H](CC(C)C)NC(=O)[C@H](NC(C)=O)C1c2ccccc2CCc2ccccc21)C(=O)N[C@@H](Cc1c[nH]c2ccccc12)C(=O)O` showed an inhibition of 0%.
Same read-out and setting: in the case of `CC[C@H](C)[C@H](NC(=O)[C@H](CO)NC(=O)[C@H](CC(=O)O)NC(=O)[C@H](CC(C)C)NC(=O)[C@H](NC(C)=O)C1c2ccccc2CCc2ccccc21)C(=O)N[C@@H](Cc1c[nH]c2ccccc12)C(=O)O` it was 0%; in that of `CC[C@H](C)[C@H](NC(=O)[C@H](CC(C)C)NC(=O)[C@H](CC(=O)O)NC(=O)[C@H](CC(C)C)NC(=O)[C@H](NC(C)=O)C1c2ccccc2CCc2ccccc21)C(=O)N[C@@H](Cc1c[nH]c2ccccc12)C(=O)O`, 9%; in that of `CC[C@H](C)[C@H](NC(=O)[C@@H](NC(=O)[C@H](CC(=O)O)NC(=O)[C@H](CC(C)C)NC(=O)[C@H](NC(C)=O)C1c2ccccc2CCc2ccccc21)[C@H](C)O)C(=O)N[C@@H](Cc1c[nH]c2ccccc12)C(=O)O`, 12%.
The same measure, in the same setting: the value for `CC[C@H](C)[C@H](NC(=O)[C@H](CC(=O)O)NC(=O)[C@H](CC(=O)O)NC(=O)[C@H](CC(C)C)NC(=O)[C@H](NC(C)=O)C1c2ccccc2CCc2ccccc21)C(=O)N[C@@H](Cc1c[nH]c2ccccc12)C(=O)O` was 0%.

As usually defined, the IC50 is the concentration needed to halve the response being measured. The inhibition is the relative decrease from the control value, in per cent.
